From US7855049B2, “Inositol pyrophosphates determine exocytotic capacity” (BioCrine AB, priority 2007, dated 2010) come the findings set out here.

Type in all cases: cell-based
Assay [1] has as its system mouse β-cells. Put plainly: Capacitance measurement of exocytosis, standard whole-cell patch, inositol phosphate in the pipette-filling solution. On the procedure:
Cells expressing EGFP were selected for capacitance measurements. Exocytosis was monitored as changes in cell capacitance using either the perforated patch or standard whole-cell configuration of the patch-clamp technique and an EPC9 patch-clamp amplifier (Heka Elektronik, Lambrecht/Pfalz, Germany). The pipette solution for the perforated patch configuration consisted of (in mM) 76 Cs2SO4, 10 NaCl, 10 KCl, 1 MgCl2, 5 HEPES (pH 7.35 with CsOH) and 0.24 mg/ml amphotericin B. Perforation required a few minutes, and the voltage clamp was considered satisfactory when the Gseries (series conductance) was stable and >35 nS. The pipette solution used for standard whole-cell recordings contained (in mM) 125 Cs-glutamate, 10 CsCl, 10 NaCl, 1 MgCl2, 5 HEPES, 0.05 EGTA, 0.01 GTP and 3 MgATP (pH 7.15 using CsOH). InsP7 isomers were dissolved in the pipette-filling solution to the final concentrations indicated in the text and kept on ice until use. The extracellular medium was composed of (in mM) 118 NaCl, 20 tetraethylammonium-Cl, 5.6 KCl, 1.2 MgCl2, 2.6 CaCl2, 5 HEPES (pH 7.40 using NaOH) and 3 glucose. The stimulation protocol consisted of trains of four 500-ms depolarizations applied at 1 Hz and went from −70 mV to zero mV. The capacitance measurements were performed at 33° C. and the recording chamber was perfused at a rate of 1.5 ml/min.
An important concern is that IP6K's can also use InsP5 as a substrate, generating a different subset of inositol pyrophosphates (4). Therefore, it was necessary to verify that InsP7 is able to directly promote exocytosis. The mammalian InsP7 is the 5-isomer and this was used in detailed experiments (FIG. 3A-D). We also assessed other theoretical isomers of InsP7 (FIG. 3E). To measure the effects of 5-InsP7 on exocytosis, we applied trains of depolarizations in standard whole-cell experiments where the β-cell was dialyzed with a solution containing 3 μM InsP7. Following establishment of the whole-cell configuration, the cell was allowed two minutes equilibration period. A train consisting of four 500 ms depolarizations from −70 mV to 0 mV was then applied to evoke exocytosis. In a series of six experiments, the total increase in cell capacitance amounted to 231+/−12 fF (P<0.01) in the presence of 3 μM InsP7 in the pipette-filling solution and 77+/−11 fF under control conditions, respectively (FIG. 3A). […] The stimulatory action of 5-InsP7 on exocytosis was concentration dependent (FIG. 3D). […] At higher concentrations, 5-InsP7 stimulated exocytosis by 90-410%. Approximating the average data points to the Hill equation yielded a half-maximal stimulatory effect of 1.02 μM and a co-operativity factor of 1.5. […] Thus, 5-InsP7 dose-dependently enhances exocytosis within the physiological range of InsP7 concentrations (1-10 μM). […] This is because the effect of InsP6 on exocytosis can only be discerned under conditions in which endocytosis is inhibited (15). This is not the case for InsP7. […] Our data illustrate that InsP7 and InsP6 have distinct effects on exocytosis.

The test system of assay [2] is mouse β-cells. The assay is described as above. Particulars: at InsP7; single depolarization from −70 mV to zero. Set-up: dose or concentration left out as unconfirmed.
Assay [3] deals with whole-cell Ca2+ current in mouse β-cells. The experiment in a line: Whole-cell Ca2+ current (integrated Ca2+ current) during depolarization train. The note with it: 3 μM in the pipette-filling solution. On the procedure:
FIG. 3. InsP7 dose-dependently promotes Ca2+-dependent exocytosis. Individual mouse β-cells were subjected to a train of four 500-ms depolarizations using the standard whole-cell patch configuration. (A) Exocytosis was observed under control conditions and in the presence of 3 μM 5-InsP7 in the pipette-filling solution. 5-InsP7 was allowed to diffuse into the cell for 2 min before initiation of the experiment. (B) Histogram summarizing the average increases in cell capacitance plotted against the individual depolarizations as well as the total increases in cell capacitance at the end of the train in the absence or presence of 3 μM 5-InsP7 in the pipette-filling solution. (C) Histogram showing integrated Ca2+ current (QCa) plotted against the individual depolarizations in the absence or presence of 3 μM InsP7 in the pipette-filling solution. (D) Concentration dependence of stimulatory action of 5-InsP7 on exocytosis evoked by a single membrane depolarization from −70 mV to zero. The curve represents a least-squares fit of the mean data points to the Hill equation. […]
Cells expressing EGFP were selected for capacitance measurements. Exocytosis was monitored as changes in cell capacitance using either the perforated patch or standard whole-cell configuration of the patch-clamp technique and an EPC9 patch-clamp amplifier (Heka Elektronik, Lambrecht/Pfalz, Germany). […]

[4] abbreviates: in the presence of 5-InsP7 (3 μM).

`O=P(O)(O)OC1[C@@H](OP(=O)(O)O)[C@H](OP(=O)(O)O)C(OP(=O)(O)OP(=O)(O)O)[C@H](OP(=O)(O)O)[C@H]1OP(=O)(O)O` (stereo partly drawn) [5-InsP7, 5-Diphosphoinositol pentakisphosphate]: the “concentration giving maximal stimulation of exocytosis” value in the assay with mouse β-cells [1] was ≥ 10 µM. Also, in the assay on mouse β-cells [1] (3 μM InsP7 in the pipette-filling solution, train of four 500 ms depolarizations, six experiments), the “total increase in cell capacitance” value is listed as 231+/−12 fF. The EC50 in the assay with mouse β-cells [1] (Hill equation fit of average data points, read-out: half-maximal stimulatory effect on exocytosis) is 1020 nM. Moreover, in the assay on mouse β-cells [1] (at InsP7 ≧10 μM), the “maximal stimulation of exocytosis” value is > 380%. The stimulation of exocytosis in the assay on mouse β-cells [1] (at higher concentrations (above 0.1), single depolarization) is reported as 90-410%. Further, in the assay with mouse β-cells [1] (setting [4]), the “capacitance increase evoked by the first depolarization” value is on record as “strongly stimulated” and the “exocytosis in response to the subsequent 3 depolarizations” value is recorded as “only little effect”. Besides, in the assay with mouse β-cells [1] (whole cell mode, IP6K1 siRNA-treated primary β-cells), the “exocytotic response in cells with IP6K1 silenced” value is “restore normal exocytotic response”. Further, the “stimulation of exocytosis at low concentration” value in the assay with mouse β-cells [2] was “No stimulation”. Also, in assay [3], the “change in the whole-cell Ca2+ current” value is given as “not associated with a change”.

As to `O=P(O)(O)O[C@H]1[C@H](OP(=O)(O)O)[C@@H](OP(=O)(O)O)[C@H](OP(=O)(O)O)[C@@H](OP(=O)(O)O)[C@H]1OP(=O)(O)O` [InsP6], the “net effect on exocytosis/endocytosis” value in the assay on mouse β-cells [1] (same conditions as for InsP7, 10 μM InsP6 in the pipette-filling solution) is recorded as “promote endocytosis not exocytosis”. Moreover, the “selective promotion of secretion from the RRP” value with mouse β-cells [1] (when endocytosis is inhibited (data not shown)) is “does not selectively promote secretion from the RRP”.
